Measured values taken from patent US11478466B2, “Small molecule promoting osteoblast differentiation” (Cornell University, priority 2019, dated 2022).
Read-outs that look alike come from different tables or passages of the source.

Assays:
[1] = tested on: alkaline phosphatase (ALP); details: for RFU Score (10 μM): 154-analog library, C2C12, duplicate; for RFU Score Threshold ≥ 800 / Fluorescence Z Score Threshold ≥ 10: primary screen, C2C12, 4 days; for RFU Score (10 μM) / RFU Score Threshold ≥ 800 / Fluorescence Z Score Threshold ≥ 10: 10 μM; for RFU Score Threshold ≥ 800: Ex 450/Em 580 nm, rank in brackets not taken; for Fluorescence Z Score Threshold ≥ 10: Z score on DMSO control wells; for Fluo. Z Score: SAR of library and proprietary analogs, AttoPhos assay, C2C12
[2] = tested on: alkaline phosphatase (ALP); test: cells; details: Mus musculus; for activation at 10 µM: C2C12, 96 h; for EC50: C2C12
[3] = read-out: NPA Score Threshold ≥ 5.0 (normalized percent activation)

Compound | RFU Score (10 μM) [1] | activation at 10 µM [2] [%] | also measured
Cc1noc(C(C)N(C)C(=O)c2[nH]cnc2-c2ccccc2)n1 (stereo not drawn) [RU-0424521] | 604 | 11.3 | –
Cc1cc(C)c2[nH]c(=O)c(CN3CCC(Oc4ncccn4)CC3)cc2c1 [RU-0424456] | 310 | 0.99 | –
Cc1cc(C)c2[nH]c(=O)c(CN(C)Cc3noc(C4CC4)n3)cc2c1 [RU-0424459] | 383 | 3.58 | –
Cc1cc(C)c2[nH]c(=O)c(CN(C)Cc3ncccc3C)cc2c1 [RU-0424532] | 627 | 12.2 | –
Cc1c(-c2ccccc2F)[nH]c2ccc(CNS(=O)(=O)N3CCCC3)cc12 [RU-0225107] | – | – | RFU Score Threshold ≥ 800 [1]: 805 (34); Fluorescence Z Score Threshold ≥ 10 [1]: Below Threshold; activation at 10 µM [2, 3]: 5.07%
CNC(=O)[C@@H]1C[C@H](N)CN1Cc1cc2cc(C)cc(C)c2[nH]c1=O [RU-0424517] | 527 | 8.64 | –
Cc1cc(C)c2[nH]c(=O)c(-c3c(-c4ccccc4)ncn3C3CCNC3)cc2c1 (stereo not drawn) [RU-0266582] | – | – | Fluo. Z Score [1]: 0.48 ± 1.10; EC50 [2]: 1.42 µM
Cc1cc(C)c2[nH]c(=O)c(CN(C)CCc3scnc3C)cc2c1 [RU-0424444] | 446 | 5.79 | –
COc1cccc(-c2[nH]cnc2-c2ccccc2)c1OCCN(C)C [RU-0247047] | 558 | 9.73 | –
O=C(NC1CC(=O)N(Cc2ccc(F)cc2)C1)c1[nH]cnc1-c1ccccc1 (stereo not drawn) [RU-0424548] | 467 | 6.54 | –
O=C(c1[nH]cnc1-c1ccccc1)N1CC(c2cccnc2)C1 [RU-0424453] | 323 | 1.46 | –
CO[C@@H]1CC[C@@]2(OC)CCN(C(=O)c3[nH]cnc3-c3ccccc3)[C@H]2C1 [RU-0424503] | 436 | 5.45 | –
Cc1cc(C)c2[nH]c(=O)c(CN3CCC4(CCOCC4)CC3)cc2c1 [RU-0227345] | 384 | 3.6 | –
Cc1cc(C)c2[nH]c(=O)c(CN3C[C@@H](C)O[C@@H](C)C3)cc2c1 [RU-0424448] | 253 | -1 | –
CC1(C)OB(c2c(C(=O)O)c(=O)[nH]c3ccc(Cl)cc23)OC1(C)C [BT353] | – | – | Fluo. Z Score [1]: 3.15 ± 0.34; EC50 [2]: 5.31 µM
Cc1cc(C)c2[nH]c(=O)c(CN3CCOC(CN)C3)cc2c1 (stereo not drawn) [RU-0228809] | 341 | 1.81 | –
CN1CC2(CCCN(C(=O)c3[nH]cnc3-c3ccccc3)CC2)OC1=O (stereo not drawn) [RU-0245926] | 558 | 9.73 | –
Cc1nn(C)c(N2CCOCC2)c1-c1[nH]cnc1-c1ccccc1 [RU-0424450] | 288 | 0.24 | –
O=C(CCc1n[nH]c2c1CCCC2)N1CCC2(CCCO2)CC1 [RU-0250369] | – | – | RFU Score Threshold ≥ 800 [1]: Below Threshold; Fluorescence Z Score Threshold ≥ 10 [1]: Below Threshold; activation at 10 µM [2, 3]: 5.46%
COc1cccc(-c2[nH]cnc2-c2ccccc2)c1OCCn1ccnc1 [RU-0265092] | 478 | 6.93 | –
CN(C)CCNc1cc(-c2ccc(Cl)cc2F)c2cc[nH]c2n1 [RU-0242925] | – | – | RFU Score Threshold ≥ 800 [1]: Below Threshold; Fluorescence Z Score Threshold ≥ 10 [1]: Below Threshold; activation at 10 µM [2, 3]: 5.73%
CN(C)CC1(O)CCCN(C(=O)c2[nH]cnc2-c2ccccc2)C1 (stereo not drawn) [RU-0424441] | 368 | 3.04 | –
O=C(c1[nH]cnc1-c1ccccc1)N1CCN2C(=O)OCC2C1 (stereo not drawn) [RU-0424454] | 333 | 1.83 | –
CCC(C)Sc1ccc(-c2[nH]cnc2-c2ccccc2)cn1 (stereo not drawn) [RU-0424478] | 361 | 2.79 | –
CC(C)c1nnc(CN2C[C@H]3CC=CC[C@H]3C2)o1 [RU-0223925] | – | – | RFU Score Threshold ≥ 800 [1]: 1120 (6); Fluorescence Z Score Threshold ≥ 10 [1]: 18.94 (8); activation at 10 µM [2, 3]: 11.2%
